From paper PMC9481151, “Discovery of new symmetrical and asymmetrical nitrile-containing 1,4-dihydropyridine derivatives as dual kinases and P-glycoprotein inhibitors: synthesis, in vitro assays, and in silico studies” (Journal of Enzyme Inhibition and Medicinal Chemistry, 2022)

Key:
[1] = test system: NCI-H322M; assay: NCI single dose (10 µM) SRB screen; assay type: cell-based; details: non-small cell lung cancer, 48 h
[2] = test system: NCI-H23; assay: NCI single dose (10 µM) SRB screen; assay type: cell-based, human; details: non-small cell lung cancer, 48 h
[3] = test system: SNB-19; assay: NCI single dose (10 µM) SRB screen; assay type: cell-based, human; details: CNS cancer, 48 h
[4] = test system: HT29; assay: NCI single dose (10 µM) SRB screen; assay type: cell-based, human; details: colon cancer, 48 h
[5] = test system: SF-295; assay: NCI single dose (10 µM) SRB screen; assay type: cell-based, human; details: CNS cancer, 48 h
[6] = test system: U251; assay: NCI single dose (10 µM) SRB screen; assay type: cell-based, human; details: CNS cancer, 48 h
[7] = test system: DU-145; assay: NCI single dose (10 µM) SRB screen; assay type: cell-based, human; details: prostate cancer, 48 h
[8] = test system: UO-31; assay: NCI single dose (10 µM) SRB screen; assay type: cell-based, human; details: renal cancer, 48 h
[9] = test system: LOX IMVI; assay: NCI single dose (10 µM) SRB screen; assay type: cell-based, human; details: melanoma, 48 h
[10] = test system: A498; assay: NCI single dose (10 µM) SRB screen; assay type: cell-based, human; details: renal cancer, 48 h
[11] = test system: COLO 205; assay: NCI single dose (10 µM) SRB screen; assay type: cell-based, human; details: colon cancer, 48 h
[12] = test system: NCI-H522; assay: NCI single dose (10 µM) SRB screen; assay type: cell-based, human; details: non-small cell lung cancer, 48 h
[13] = test system: HCC-2998; assay: NCI single dose (10 µM) SRB screen; assay type: cell-based, human; details: colon cancer, 48 h
[14] = test system: RXF 393; assay: NCI single dose (10 µM) SRB screen; assay type: cell-based, human; details: renal cancer, 48 h
[15] = test system: PC-3; assay: NCI single dose (10 µM) SRB screen; assay type: cell-based, human; details: prostate cancer, 48 h
[16] = test system: UACC-62; assay: NCI single dose (10 µM) SRB screen; assay type: cell-based, human; details: melanoma, 48 h
[17] = test system: K-562; assay: NCI single dose (10 µM) SRB screen; assay type: cell-based, human; details: leukaemia, 48 h
[18] = test system: MDA-MB-468; assay: NCI single dose (10 µM) SRB screen; assay type: cell-based, human; details: breast cancer, 48 h
[19] = test system: Pseudomonas aeruginosa; assay: Agar well diffusion method; details: relative to ciprofloxacin
[20] = test system: HOP-92; assay: NCI single dose (10 µM) SRB screen; assay type: cell-based, human; details: non-small cell lung cancer, 48 h
[21] = test system: OVCAR-4; assay: NCI single dose (10 µM) SRB screen; assay type: cell-based, human; details: ovarian cancer, 48 h
[22] = test system: SW-620; assay: NCI single dose (10 µM) SRB screen; assay type: cell-based, human; details: colon cancer, 48 h
[23] = test system: SNB-75; assay: NCI single dose (10 µM) SRB screen; assay type: cell-based, human; details: CNS cancer, 48 h
[24] = test system: MCF7; assay: NCI single dose (10 µM) SRB screen; assay type: cell-based, human; details: breast cancer, 48 h
[25] = test system: Escherichia coli; assay: Agar well diffusion method; details: relative to ciprofloxacin
[26] = test system: HCT-116; assay: NCI single dose (10 µM) SRB screen; assay type: cell-based, human; details: colon cancer, 48 h
[27] = test system: Bacillus subtilis; assay: Agar well diffusion method; details: relative to ciprofloxacin
[28] = test system: M14; assay: NCI single dose (10 µM) SRB screen; assay type: cell-based, human; details: melanoma, 48 h
[29] = test system: OVCAR-3; assay: NCI single dose (10 µM) SRB screen; assay type: cell-based, human; details: ovarian cancer, 48 h
[30] = test system: ACHN; assay: NCI single dose (10 µM) SRB screen; assay type: cell-based, human; details: renal cancer, 48 h
[31] = test system: SK-MEL-28; assay: NCI single dose (10 µM) SRB screen; assay type: cell-based, human; details: melanoma, 48 h
[32] = test system: HL-60(TB); assay: NCI single dose (10 µM) SRB screen; assay type: cell-based, human; details: leukaemia, 48 h
[33] = test system: MDA-MB-231; assay: NCI single dose (10 µM) SRB screen; assay type: cell-based, human; details: breast cancer, 48 h
[34] = test system: SN12C; assay: NCI single dose (10 µM) SRB screen; assay type: cell-based, human; details: renal cancer, 48 h
[35] = test system: MDA-MB-435; assay: NCI single dose (10 µM) SRB screen; assay type: cell-based, human; details: melanoma, 48 h
[36] = test system: SK-MEL-5; assay: NCI single dose (10 µM) SRB screen; assay type: cell-based, human; details: melanoma, 48 h
[37] = test system: NCI/ADR-RES; assay: NCI single dose (10 µM) SRB screen; assay type: cell-based, human; details: ovarian cancer, 48 h
[38] = test system: Aspergillus flavus; assay: Agar well diffusion method
[39] = test system: CCRF-CEM; assay: NCI single dose (10 µM) SRB screen; assay type: cell-based, human; details: leukaemia, 48 h
[40] = test system: Candida albicans; assay: Agar well diffusion method; details: relative to clotrimazole
[41] = test system: EKVX; assay: NCI single dose (10 µM) SRB screen; assay type: cell-based, human; details: non-small cell lung cancer, 48 h
[42] = test system: A549/ATCC; assay: NCI single dose (10 µM) SRB screen; assay type: cell-based, human; details: non-small cell lung cancer, 48 h
[43] = test system: HOP-62; assay: NCI single dose (10 µM) SRB screen; assay type: cell-based, human; details: non-small cell lung cancer, 48 h
[44] = test system: UACC-257; assay: NCI single dose (10 µM) SRB screen; assay type: cell-based, human; details: melanoma, 48 h
[45] = test system: 786-0; assay: NCI single dose (10 µM) SRB screen; assay type: cell-based, human; details: renal cancer, 48 h
[46] = test system: SK-OV-3; assay: NCI single dose (10 µM) SRB screen; assay type: cell-based, human; details: ovarian cancer, 48 h
[47] = test system: NCI-H226; assay: NCI single dose (10 µM) SRB screen; assay type: cell-based, human; details: non-small cell lung cancer, 48 h
[48] = test system: T-47D; assay: NCI single dose (10 µM) SRB screen; assay type: cell-based, human; details: breast cancer, 48 h
[49] = test system: BT-549; assay: NCI single dose (10 µM) SRB screen; assay type: cell-based, human; details: breast cancer, 48 h
[50] = test system: Staphylococcus aureus; assay: Agar well diffusion method
[51] = test system: IGROV1; assay: NCI single dose (10 µM) SRB screen; assay type: cell-based, human; details: ovarian cancer, 48 h
[52] = test system: SF-539; assay: NCI single dose (10 µM) SRB screen; assay type: cell-based, human; details: CNS cancer, 48 h
[53] = test system: KM12; assay: NCI single dose (10 µM) SRB screen; assay type: cell-based, human; details: colon cancer, 48 h
[54] = test system: OVCAR-5; assay: NCI single dose (10 µM) SRB screen; assay type: cell-based, human; details: ovarian cancer, 48 h
[55] = test system: SK-MEL-2; assay: NCI single dose (10 µM) SRB screen; assay type: cell-based, human; details: melanoma, 48 h
[56] = test system: TK-10; assay: NCI single dose (10 µM) SRB screen; assay type: cell-based, human; details: renal cancer, 48 h
[57] = test system: CAKI-1; assay: NCI single dose (10 µM) SRB screen; assay type: cell-based, human; details: renal cancer, 48 h
[58] = test system: SR; assay: NCI single dose (10 µM) SRB screen; assay type: cell-based, human; details: leukaemia, 48 h
[59] = test system: SF-268; assay: NCI single dose (10 µM) SRB screen; assay type: cell-based, human; details: CNS cancer, 48 h
[60] = test system: MOLT-4; assay: NCI single dose (10 µM) SRB screen; assay type: cell-based, human; details: leukaemia, 48 h
[61] = test system: NCI-H460; assay: NCI single dose (10 µM) SRB screen; assay type: cell-based, human; details: non-small cell lung cancer, 48 h
[62] = test system: RPMI-8226; assay: NCI single dose (10 µM) SRB screen; assay type: cell-based, human; details: leukaemia, 48 h
[63] = test system: HS578T; assay: NCI single dose (10 µM) SRB screen; assay type: cell-based, human; details: breast cancer, 48 h
[64] = test system: OVCAR-8; assay: NCI single dose (10 µM) SRB screen; assay type: cell-based, human; details: ovarian cancer, 48 h
[65] = test system: NCI 60 cancer cell lines; assay: NCI single dose (10 µM) SRB screen, mean over panel; assay type: cell-based, human; details: mean over 60 cell lines, 48 h
[66] = test system: HCT-15; assay: NCI single dose (10 µM) SRB screen; assay type: cell-based, human; details: colon cancer, 48 h
[67] = test system: MALME-3M; assay: NCI single dose (10 µM) SRB screen; assay type: cell-based, human; details: melanoma, 48 h

Q: What does the source list for “Diethyl 4-(3-cyanophenyl)-2,6-dipropyl-1,4-dihydropyridine-3,5-dicarboxylate [Compound 1h]”?
A: GI% NCI-H322M [1]: – (Only GI% ≥ 10 are shown); GI% NCI-H23 [2]: – (Only GI% ≥ 10 are shown); GI% SNB-19 [3]: – (Only GI% ≥ 10 are shown); GI% HT29 [4]: 12%; GI% SF-295 [5]: 11%; GI% U251 [6]: – (Only GI% ≥ 10 are shown); GI% DU-145 [7]: – (Only GI% ≥ 10 are shown); GI% UO-31 [8]: 19%; GI% LOX IMVI [9]: – (Only GI% ≥ 10 are shown); GI% A498 [10]: 18%; GI% COLO 205 [11]: – (Only GI% ≥ 10 are shown); GI% NCI-H522 [12]: 20%; GI% HCC-2998 [13]: – (Only GI% ≥ 10 are shown); GI% RXF 393 [14]: 18%; GI% PC-3 [15]: 47%; GI% UACC-62 [16]: 19%; GI% K-562 [17]: 31%; GI% MDA-MB-468 [18]: 20%; % activity index, P. aeruginosa [19]: – (Values below 25 are of limited value and not shown as they refer either to inactive or non-diffusing compounds); GI% HOP-92 [20]: 29%; GI% OVCAR-4 [21]: 32%; GI% SW-620 [22]: – (Only GI% ≥ 10 are shown); GI% SNB-75 [23]: 42%; GI% MCF7 [24]: 25%; % activity index, E. coli [25]: – (Values below 25 are of limited value and not shown as they refer either to inactive or non-diffusing compounds); GI% HCT-116 [26]: 30%; % activity index, B. subtilis [27]: – (Values below 25 are of limited value and not shown as they refer either to inactive or non-diffusing compounds); GI% M14 [28]: – (Only GI% ≥ 10 are shown); GI% OVCAR-3 [29]: – (Only GI% ≥ 10 are shown); GI% ACHN [30]: – (Only GI% ≥ 10 are shown); GI% SK-MEL-28 [31]: – (Only GI% ≥ 10 are shown); GI% HL-60(TB) [32]: – (Only GI% ≥ 10 are shown); GI% MDA-MB-231 [33]: – (Only GI% ≥ 10 are shown); GI% SN12C [34]: – (Only GI% ≥ 10 are shown); GI% MDA-MB-435 [35]: – (Only GI% ≥ 10 are shown); GI% SK-MEL-5 [36]: 31%; GI% NCI/ADR-RES [37]: 18%; Diameter of inhibition zone, A. flavus ([38]; 1 mg/mL in DMSO, 24 h, 36 °C): 8 mm; % activity index, A. flavus ([38]; relative to clotrimazole): 32%; GI% CCRF-CEM [39]: 24%; % activity index, C. albicans [40]: – (Values below 25 are of limited value and not shown as they refer either to inactive or non-diffusing compounds); GI% EKVX [41]: 21%; GI% A549/ATCC [42]: 21%; GI% HOP-62 [43]: – (Only GI% ≥ 10 are shown); GI% UACC-257 [44]: – (Only GI% ≥ 10 are shown); GI% 786-0 [45]: 16%; GI% SK-OV-3 [46]: – (Only GI% ≥ 10 are shown); GI% NCI-H226 [47]: 26%; GI% T-47D [48]: 32%; GI% BT-549 [49]: 14%; Diameter of inhibition zone, S. aureus ([50]; 1 mg/mL in DMSO, 24 h, 36 °C): 7 mm; % activity index, S. aureus ([50]; relative to ciprofloxacin): 29.2%; GI% IGROV1 [51]: 10%; GI% SF-539 [52]: 14%; GI% KM12 [53]: – (Only GI% ≥ 10 are shown); GI% OVCAR-5 [54]: – (Only GI% ≥ 10 are shown); GI% SK-MEL-2 [55]: – (Only GI% ≥ 10 are shown); GI% TK-10 [56]: – (Only GI% ≥ 10 are shown); GI% CAKI-1 [57]: 30%; GI% SR [58]: 32%; GI% SF-268 [59]: 22%; GI% MOLT-4 [60]: 38%; GI% NCI-H460 [61]: – (Only GI% ≥ 10 are shown); GI% RPMI-8226 [62]: 34%; GI% HS578T [63]: 18%; GI% OVCAR-8 [64]: – (Only GI% ≥ 10 are shown); Mean GI% [65]: 14%; GI% HCT-15 [66]: 17%; GI% MALME-3M [67]: – (Only GI% ≥ 10 are shown)
